Measurements published in patent US11541015B2, “Self-righting systems, methods, and related components” (priority 2017, dated 2023).

System: glucose-6-phosphate
Settings: micropost tips 40% G6PD and 60% PEO 200 k, versus uncompressed powder
Method: To perform the activity assay on G6PD, an activity assay kit (Sigma Aldrich) was used which measures the amount of oxidized glucose-6-phosphate. […] Duplicate assays were performed on the dissolved solution.

Substance: glucose-6-phosphate dehydrogenase
- G6PD activity after the manufacturing process: maintain their activity
